# Test results from PubChem BioAssay AID248 (DTP/NCI, 2004).
# “And” between values parts separate entries of the source, which are not always exact repeats. Equal values may be shown once. Inconclusive results and toxic doses are left out.
# System: L1210 leukemia ip in BDF1 mice, survival T/C
# Assay: NCI In Vivo Anticancer Drug Screen. Data for tumor model L1210 Leukemia (intraperitoneal) in B6D2F1 (BDF1) mice
# Details: endpoint: mean survival time, higher = longer survival
# How it was run: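 Tumor cells were implanted, animals were treated, and survival was followed. The result divides the treated measurement by the vehicle-control measurement.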
# [1] = dose: 100.0 mg/kg/injection, schedule: Q04DX002 (ip), vehicle: Klucel (hydroxypropylcellulose) (HPC)
# [2] = dose: 200.0 mg/kg/injection, schedule: Q04DX002 (ip), vehicle: Klucel (hydroxypropylcellulose) (HPC)
# [3] = dose: 400.0 mg/kg/injection, schedule: Q04DX002 (ip), vehicle: Klucel (hydroxypropylcellulose) (HPC)
# [4] = dose: 100.0 mg/kg/injection, schedule: Q04DX003 (ip), vehicle: saline
# [5] = dose: 200.0 mg/kg/injection, schedule: Q04DX003 (ip), vehicle: saline
# [6] = dose: 400.0 mg/kg/injection, schedule: Q04DX003 (ip), vehicle: saline
# [7] = dose: 100.0 mg/kg/injection, schedule: Q04DX003 (ip), vehicle: Klucel (hydroxypropylcellulose) (HPC)
# [8] = dose: 200.0 mg/kg/injection, schedule: Q04DX003 (ip), vehicle: Klucel (hydroxypropylcellulose) (HPC)
# [9] = dose: 400.0 mg/kg/injection, schedule: Q04DX003 (ip), vehicle: Klucel (hydroxypropylcellulose) (HPC)
# [10] = dose: 100.0 mg/kg/injection, schedule: Q01DX009 (ip), vehicle: saline
# [11] = dose: 200.0 mg/kg/injection, schedule: Q01DX009 (ip), vehicle: saline
# [12] = dose: 400.0 mg/kg/injection, schedule: Q01DX009 (ip), vehicle: saline
# [13] = dose: 100.0 mg/kg/injection, schedule: Q01DX009 (ip), vehicle: Klucel (hydroxypropylcellulose) (HPC)
# [14] = dose: 200.0 mg/kg/injection, schedule: Q01DX009 (ip), vehicle: Klucel (hydroxypropylcellulose) (HPC)
# [15] = dose: 400.0 mg/kg/injection, schedule: Q01DX009 (ip), vehicle: Klucel (hydroxypropylcellulose) (HPC)
# [16] = dose: 100.0 mg/kg/injection, schedule: Q01DX009 (ip), vehicle: saline with Tween-80
# [17] = dose: 200.0 mg/kg/injection, schedule: Q01DX009 (ip), vehicle: saline with Tween-80
# [18] = dose: 400.0 mg/kg/injection, schedule: Q01DX009 (ip), vehicle: saline with Tween-80
# [19] = dose: 100.0 mg/kg/injection, schedule: Q04DX003 (ip), vehicle: saline with Tween-80
# [20] = dose: 200.0 mg/kg/injection, schedule: Q04DX003 (ip), vehicle: saline with Tween-80
# [21] = dose: 400.0 mg/kg/injection, schedule: Q04DX003 (ip), vehicle: saline with Tween-80
# [22] = dose: 100.0 mg/kg/injection, schedule: Q01DX001 (ip), vehicle: other
# [23] = dose: 200.0 mg/kg/injection, schedule: Q01DX001 (ip), vehicle: other
# [24] = dose: 400.0 mg/kg/injection, schedule: Q01DX001 (ip), vehicle: other
# [25] = dose: 100.0 mg/kg/injection, schedule: Q01DX001 (ip), vehicle: Klucel (hydroxypropylcellulose) (HPC)
# [26] = dose: 200.0 mg/kg/injection, schedule: Q01DX001 (ip), vehicle: Klucel (hydroxypropylcellulose) (HPC)
# [27] = dose: 400.0 mg/kg/injection, schedule: Q01DX001 (ip), vehicle: Klucel (hydroxypropylcellulose) (HPC)
# [28] = dose: 100.0 mg/kg/injection, schedule: Q01DX001 (ip), vehicle: saline
structure (smiles),measurement,setting,value
COc1ccc(N=C(CCl)Nc2ccc(OC)cc2)cc1,T/C,[1],94 % of control
same,T/C,[2],88 % of control
same,T/C,[3],109 % of control
O=C(O)C1C2C=CC(CC2)C1C(=O)O (stereo not given),T/C,[4],96 % of control
same,T/C,[5],90 % of control
same,T/C,[6],94 % of control
CCOC(=O)c1ccc(C(C)=O)o1,T/C,[7],100 % of control
same,T/C,[8],106 % of control
same,T/C,[9],94 % of control
COc1ccc(CC[n+]2ccc(C#N)c(C(C)=O)c2)cc1OC,T/C,"dose: 75.0 mg/kg/injection, schedule: Q01DX001 (ip), vehicle: carboxymethylcellulose (CMC)",106 % of control
same,T/C,"dose: 150.0 mg/kg/injection, schedule: Q01DX001 (ip), vehicle: carboxymethylcellulose (CMC)",105 % of control
O=C(O)CSC1=NCCN1,T/C,"dose: 25.0 mg/kg/injection, schedule: Q01DX009 (ip), vehicle: saline",91 % of control
same,T/C,"dose: 50.0 mg/kg/injection, schedule: Q01DX009 (ip), vehicle: saline",92 % of control
same,T/C,"dose: 50.0 mg/kg/injection, schedule: Q04DX002 (ip), vehicle: saline",106 % of control and 113 % of control
same,T/C,[10],90 % of control
same,T/C,"dose: 100.0 mg/kg/injection, schedule: Q04DX002 (ip), vehicle: saline",100 % of control and 113 % of control
same,T/C,[11],93 % of control
same,T/C,"dose: 200.0 mg/kg/injection, schedule: Q04DX002 (ip), vehicle: saline",260 % of control and 91 % of control
same,T/C,[12],91 % of control
same,T/C,"dose: 400.0 mg/kg/injection, schedule: Q04DX002 (ip), vehicle: saline",106 % of control
CC(=O)CC(=O)NC1CCCC1,T/C,[13],103 % of control
same,T/C,[7],100 % of control
same,T/C,[14],100 % of control
same,T/C,[8],100 % of control
same,T/C,[15],100 % of control
same,T/C,[9],100 % of control
C=CC(C(=O)OCC)C(O)CCC (stereo not given),T/C,"dose: 50.0 mg/kg/injection, schedule: Q01DX009 (ip), vehicle: Klucel (hydroxypropylcellulose) (HPC)",104 % of control
same,T/C,[13],95 % of control
same,T/C,[7],95 % of control
same,T/C,[14],101 % of control and 108 % of control
same,T/C,[8],94 % of control
same,T/C,[15],100 % of control
same,T/C,[9],101 % of control
CC(CCC(=O)O)(c1cc(Br)c(O)c(Br)c1)c1cc(Br)c(O)c(Br)c1,T/C,[10],93 % of control
same,T/C,"dose: 100.0 mg/kg/injection, schedule: Q04DX003 (ip), vehicle: other",102 % of control
same,T/C,[11],95 % of control
same,T/C,"dose: 200.0 mg/kg/injection, schedule: Q04DX003 (ip), vehicle: other",102 % of control
same,T/C,[12],87 % of control
same,T/C,"dose: 400.0 mg/kg/injection, schedule: Q04DX003 (ip), vehicle: other",109 % of control
CS(=O)(=O)OCCCl,T/C,"dose: 18.8 mg/kg/injection, schedule: Q01DX010 (ip), vehicle: saline",92 % of control and 96 % of control
same,T/C,"dose: 37.5 mg/kg/injection, schedule: Q01DX010 (ip), vehicle: saline",92 % of control and 100 % of control
same,T/C,"dose: 75.0 mg/kg/injection, schedule: Q01DX010 (ip), vehicle: saline",101 % of control and 104 % of control
same,T/C,"dose: 150.0 mg/kg/injection, schedule: Q01DX010 (ip), vehicle: saline",97 % of control and 102 % of control
Cc1c(Cl)cccc1NC(=O)c1ccc([N+](=O)[O-])cc1,T/C,[16],91 % of control
same,T/C,[17],89 % of control
same,T/C,[18],89 % of control
COc1ccc(NC(=O)Nc2cc(Cl)ccc2OC)c(Cl)c1,T/C,[10],100 % of control
same,T/C,[4],104 % of control
same,T/C,[11],93 % of control
same,T/C,[5],98 % of control
same,T/C,[12],88 % of control
same,T/C,[6],101 % of control
O=C(O)CCC(=O)Nc1ccccc1C(F)(F)F,T/C,[19],104 % of control
same,T/C,[17],93 % of control
same,T/C,[20],98 % of control
same,T/C,[18],86 % of control
same,T/C,[21],90 % of control
C/C(=N/O)c1ccc[nH]1,T/C,[22],103 % of control
same,T/C,[23],103 % of control
same,T/C,[24],103 % of control
COc1ccc(OC)c(CCCl)c1,T/C,"dose: 100.0 mg/kg/injection, schedule: Q01DX001 (ip), vehicle: acetone",91 % of control
same,T/C,"dose: 200.0 mg/kg/injection, schedule: Q01DX001 (ip), vehicle: acetone",93 % of control
same,T/C,"dose: 400.0 mg/kg/injection, schedule: Q01DX001 (ip), vehicle: acetone",88 % of control
O=C(N/N=C/c1cccc([N+](=O)[O-])c1)c1ccc(Cl)c(Cl)c1,T/C,"dose: 50.0 mg/kg/injection, schedule: Q01DX009 (ip), vehicle: saline with Tween-80",93 % of control
same,T/C,[16],93 % of control
same,T/C,[17],90 % of control
CC(C)OC(=O)C(NC=O)C(C)(C)S (stereo not given),T/C,[19],93 % of control
same,T/C,[20],102 % of control
same,T/C,[21],97 % of control
CC1CNC(=O)CC(C)O1 (stereo not given),T/C,[4],108 % of control
same,T/C,[5],110 % of control
same,T/C,[6],104 % of control
CC1(C(Cl)(Cl)Cl)C=CC(=NOCC(=O)O)C=C1 (stereo not given),T/C,[1],98 % of control
same,T/C,[2],95 % of control
same,T/C,[3],98 % of control
CC1=C2C3OC(=O)C(C)C3C=CC2(C)C(=O)CC1 (stereo not given),T/C,[19],87 % of control
same,T/C,[20],89 % of control
same,T/C,[21],89 % of control
c1ccc2cc(B(c3cccc4ccccc34)c3cccc4ccccc34)ccc2c1,T/C,"dose: 12.5 mg/kg/injection, schedule: Q04DX002 (ip), vehicle: saline with Tween-80",102 % of control
same,T/C,"dose: 25.0 mg/kg/injection, schedule: Q04DX002 (ip), vehicle: saline with Tween-80",94 % of control
same,T/C,"dose: 50.0 mg/kg/injection, schedule: Q04DX002 (ip), vehicle: saline with Tween-80",105 % of control
COc1ccccc1OC1CCCCC1OS(C)(=O)=O (stereo not given),T/C,[25],95 % of control
same,T/C,[13],95 % of control
same,T/C,[7],102 % of control
same,T/C,[26],105 % of control
same,T/C,[14],101 % of control
same,T/C,[8],101 % of control
same,T/C,[27],95 % of control
same,T/C,[15],95 % of control
same,T/C,[9],95 % of control
CC(C)CN(CC(C)C)c1nn[nH]n1,T/C,[7],92 % of control
same,T/C,[8],98 % of control
same,T/C,[9],98 % of control
Cn1c2c(c(=O)n(C)c1=O)CCC(=O)N2,T/C,[1],106 % of control
same,T/C,[2],98 % of control
same,T/C,[3],92 % of control
CC1=C(Br)C(=O)C(c2c(C)c(Br)c(C)c([N+](=O)[O-])c2C)=C(Br)C1=O,T/C,[25],98 % of control
same,T/C,[7],102 % of control
same,T/C,[26],93 % of control
same,T/C,[8],102 % of control
same,T/C,[27],106 % of control
same,T/C,[9],91 % of control
O=C(N/N=C\c1ccc(O)cc1O)c1ccco1,T/C,[22],90 % of control
same,T/C,[23],93 % of control
same,T/C,[24],96 % of control
CCCCCN1C(=O)NC(=O)C(Cl)C1=O (stereo not given),T/C,[28],89 % of control
CCCCCC1CCC(OC(=O)NC)CC1 (stereo not given),T/C,[25],99 % of control
same,T/C,[26],100 % of control
same,T/C,[27],94 % of control
CCCCCCCCCCC(C)CCCCCCCC (stereo not given),T/C,"dose: 100.0 mg/kg/injection, schedule: Q01DX001 (ip), vehicle: saline with Tween-80",113 % of control
same,T/C,"dose: 200.0 mg/kg/injection, schedule: Q01DX001 (ip), vehicle: saline with Tween-80",100 % of control
same,T/C,"dose: 400.0 mg/kg/injection, schedule: Q01DX001 (ip), vehicle: saline with Tween-80",94 % of control
OC1C(SCc2ccccc2)OCC2OC3(CCCCC3)OC21 (stereo not given),T/C,[28],100 % of control
same,T/C,"dose: 200.0 mg/kg/injection, schedule: Q01DX001 (ip), vehicle: saline",102 % of control
same,T/C,"dose: 400.0 mg/kg/injection, schedule: Q01DX001 (ip), vehicle: saline",104 % of control
